In patent US4120896A, “S-Phenenyltris(sulfonylimino)tri-anionic substituted benzene dicarboxylic acids and substituted alkyl amino acids and their salts” (America Cyanamid Company, priority 1977, dated 1978):
Values joined by “and” are separate entries in the source; they are usually repeats but may differ in a detail not shown here. Equal entries are not always repeated. Structures can show the parent of a compound that is named as a salt. Where two headings read alike, the source gives them in different places.

Tests used:
whole complement = assay: In vivo activity: whole complement level of serum of dosed guinea pigs, capillary tube assay; details: guinea pig; for inhibition at 200 mg/kg: Cavia porcellus, iv, 200 mg/kg i.v.; for % Inhibition, Intraperitoneal, 30 min / % Inhibition, Intraperitoneal, 60 min / % Inhibition, Intraperitoneal, 120 min: 200 mg/kg i.p., 200 mg/kg
From the text: (§1) An active inhibitor protects C2 from C1 and C4; (ii) Test, Code 035 (C3-C9 inhibitor) - This test determines the ability of the late components of human complement (C3-C9) to lyse EAC 142 in the presence of appropriate dilutions of the test compound. An active inhibitor protects EAC 142 from lysis by human C3-C9; (iii) Test, Code 036 (C-Shunt inhibitor) - In this test human erythrocytes rendered fragile are lysed in autologous serum via the shunt pathway activated by cobra venom factor in the presence of appropriate dilutions of the test compound. Inhibition of the shunt pathway results in failure of lysis; (iv) Forssman Vasculitis Test - Here, the well known complement dependent lesion, Forssman vasculitis, is produced in guinea pigs by intradermal injection of rabbit anti-Forssman antiserum. The lesion is measured in terms of diameter, edema and hemorrhage and the extent to which a combined index of these is inhibited by prior intraperitoneal injection of the test compound at 200 mg/kg is then reported, unless otherwise stated; (v) Forssman Shock Test - Lethal shock is produced in guinea pigs by an i.v. injection of anti-Forssman antiserum and the harmonic mean death time of treated guinea pigs is compared with that of simultaneous controls; (vi) Complement Level Reduction Test -- In this test, the above dosed guinea pigs, or others, are bled for serum and the complement level is determined in undiluted serum by the capillary tube method of U.S. Pat. No. 3,876,376 and compared to undosed control guinea pigs; and (vii) Cap 50 Test -- Here, appropriate amounts of the test compound are added to a pool of guinea pig serum in vitro, after which the undiluted serum capillary tube assay referred to above is run. The concentration of compound inhibiting 50% is reported.
With reference to Table I, guinea pigs weighing about 300 g were dosed intravenously (i.v.) or intraperitoneally (i.p.) with 200 mg/kg of the test compound dissolved in saline and adjusted to pH 7-8. […] The serum was tested for whole complement using the capillary tube assay. Percent inhibition was calculated by comparison with simultaneous controls. The results appear in Table I together with results of tests, code 026, 035, 036, Cap 50, % inhibition and Forssman shock.

[1] = system: hereditary angioneurotic edema; details: literature report, New England J. Med. 286, 808-812 (1972); cited from earlier work
complement system = details: literature report; cited from earlier work
[2] = system: anti-complement and anti-coagulant activities; assay: Intrinsic Therapeutic Index: separation of anti-complement (Code 026) and anti-coagulant (AC) activities; details: for Intrinsic Therapeutic Index: antilogarithm (base 2) of the difference in wells; for Logarithmic Difference Expressed As Wells: log base 2 difference, Code 026 minus AC
From the text: The computation of an Intrinsic Therapeutic Index (ITI) was devised to correlate the results expressed in wells, obtained in the in vitro Code 026 (C1 inhibitor) test and the in vitro anti-coagulant (AC) test into a meaningful value which would aid in the net evaluation of the activity of the compounds of this invention.
The ITI is thus a measure of the separation of anti-complement and anti-coagulant activities; the higher the numerical value the more therapeutically useful the separation of activities.

citrated sheep plasma = assay: In vitro anti-coagulant activity (AC): clotting of recalcified citrated sheep plasma with sheep RBC; format: biochemical; details: for AC Wells: Table I, two-fold serial dilution, higher well number indicates higher activity, sodium heparin positive control; for Anti-coagulant Activity (Wells) AC: Table II, in vitro
Description: The sheep RBC's, kept in suspension throughout the clotting incubation time, become enmeshed in the fibrin matrix if a clot forms. Upon centrifugation of the plate, untrapped RBC's form buttons, the sizes of which correspond to the degree of clot inhibition; this providing a measure of anti-coagulant activity (AC). Sodium heparin is used as a positive control and activity is reported in wells appearing in Table 1.
(§2) **Activity in wells a serial dilution assay. Higher well number indicates
(§3) higher activity. The serial dilutions are two -fold.

activated human C1 = activated human C1 (Homo sapiens, UniProt P09871); assay: Code 026 (C1 inhibitor) test: ability of activated human C1 to destroy fluid phase human C2 in presence of C4; format: biochemical; details: for C1 026 Wells: Table I, two-fold serial dilution, higher well number indicates higher activity; for Complement Inhibiting Activity (Wells) Code 026: Table II, in vitro
From the text: as §1, §2, §3

shunt pathway = assay: Code 036 (C-Shunt inhibitor) test: lysis of fragile human erythrocytes in autologous serum via shunt pathway activated by cobra venom factor; format: cell-based; details: Table I; two-fold serial dilution, higher well number indicates higher activity
From the text: An active inhibitor protects C2 from C1 and C4; (ii) Test, Code 035 (C3-C9 inhibitor) - This test determines the ability of the late components of human complement (C3-C9) to lyse EAC 142 in the presence of appropriate dilutions of the test compound. An active inhibitor protects EAC 142 from lysis by human C3-C9; (iii) Test, Code 036 (C-Shunt inhibitor) - In this test human erythrocytes rendered fragile are lysed in autologous serum via the shunt pathway activated by cobra venom factor in the presence of appropriate dilutions of the test compound. Inhibition of the shunt pathway results in failure of lysis; (iv) Forssman Vasculitis Test - Here, the well known complement dependent lesion, Forssman vasculitis, is produced in guinea pigs by intradermal injection of rabbit anti-Forssman antiserum. […]

[3] = system: human serum total hemolytic complement; details: in vitro and in vivo, Pathologie Biologie 25, 33-36 (1977); cited from earlier work

O=C(O)c1cc(NS(=O)(=O)c2cc(S(=O)(=O)Nc3cc(C(=O)O)cc(C(=O)O)c3)cc(S(=O)(=O)Nc3cc(C(=O)O)cc(C(=O)O)c3)c2)cc(C(=O)O)c1 [5,5',5"-[s-Phenenyltris(sulfonylimino)]tri-isophthalic acid] [listing 1 of 2 here]
inhibition at 200 mg/kg (whole complement; 2 min, 2 mins., read-out: % Inhibition, Intravenous, 2 min): -88% | inhibition at 200 mg/kg (whole complement; 0.5 h, 30 mins., read-out: % Inhibition, Intravenous, 30 min): -66% | inhibition at 200 mg/kg (whole complement; 2 h, 120 mins., read-out: % Inhibition, Intravenous, 120 min): -53%

Cc1ccc(C(=O)Nc2ccc(S(=O)(=O)O)c3cc(S(=O)(=O)O)cc(S(=O)(=O)O)c23)cc1NC(=O)c1cccc(NC(=O)Nc2cccc(C(=O)Nc3cc(C(=O)Nc4ccc(S(=O)(=O)O)c5cc(S(=O)(=O)O)cc(S(=O)(=O)O)c45)ccc3C)c2)c1 [Suramin]
success in treatment of hereditary angioneurotic edema [1]: used with success | anticomplementary effect / complement inhibition (complement system): competitive inhibitor of the complement system

O=C(O)c1cc(NS(=O)(=O)c2cc(S(=O)(=O)Nc3cc(C(=O)O)cc(C(=O)O)c3)cc(S(=O)(=O)Nc3cc(C(=O)O)cc(C(=O)O)c3)c2)cc(C(=O)O)c1 [5,5',5"-[s-Phenenyltris(sulfonylimino)]tri-isophthalic acid] [listing 2 of 2 here]
Intrinsic Therapeutic Index [2]: 512 and 256 | % Inhibition, Intraperitoneal, 30 min (whole complement; 30 mins.): -74% | % Inhibition, Intraperitoneal, 60 min (whole complement): -74% | % Inhibition, Intraperitoneal, 120 min (whole complement; 120 mins.): -74%

COC(=O)c1cc(NS(=O)(=O)c2cc(S(=O)(=O)Nc3cc(C(=O)OC)c(O)c(C(=O)OC)c3)cc(S(=O)(=O)Nc3cc(C(=O)OC)c(O)c(C(=O)OC)c3)c2)cc(C(=O)OC)c1O [5,5',5"-[s-Phenenyltris(sulfonylimino)]tri-2-hydroxy isophthalic acid hexamethyl ester]
AC Wells (citrated sheep plasma): -1 Wells

O=C(O)c1cc(NS(=O)(=O)c2cc(S(=O)(=O)Nc3ccc(O)c(C(=O)O)c3)cc(S(=O)(=O)Nc3ccc(O)c(C(=O)O)c3)c2)ccc1O [5,5',5"-[s-Phenenyltris(sulfonylimino)]trisalicylic acid]
AC Wells (citrated sheep plasma): -2 Wells

heparin
anticomplementary effect / complement inhibition (complement system): anticomplementary effect

NCCCCCC(=O)O [epsilon-aminocaproic acid]
success in treatment of hereditary angioneurotic edema [1]: used with success

O=C(O)c1cc(NS(=O)(=O)c2cc(S(=O)(=O)Nc3cc(C(=O)O)c(O)c(C(=O)O)c3)cc(S(=O)(=O)Nc3cc(C(=O)O)c(O)c(C(=O)O)c3)c2)cc(C(=O)O)c1O [5,5',5"-[s-Phenenyltris(sulfonylimino)]tri-2-hydroxy-isophthalic acid]
Intrinsic Therapeutic Index [2]: 128 | Logarithmic Difference Expressed As Wells [2]: +7 Wells | C1 026 Wells (activated human C1): +6 Wells | Complement Inhibiting Activity (Wells) Code 026 (activated human C1): +6 Wells | AC Wells (citrated sheep plasma): -1 Wells | Anti-coagulant Activity (Wells) AC (citrated sheep plasma): -1 Wells | Shunt Inhibition 036 Wells (shunt pathway): +1 Wells

pentosan-poly-sulfoester
anticomplementary activity, reduction in total hemolytic complement activity [3]: anticomplementary activity on human serum both in vitro and in vivo

Nc1ccc2cc(S(=O)(=O)O)cc(O)c2c1N=Nc1ccc(NC(=O)Nc2ccc(N=Nc3c(N)ccc4cc(S(=O)(=O)O)cc(O)c34)c(S(=O)(=O)O)c2)cc1S(=O)(=O)O [chlorazol fast pink, 3,3'-ureylenebis-[6-(2-amino-8-hydroxy-6-sulfo-1-naphthylazo)]benzenesulfonic acid, tetrasodium salt]
anticomplementary effect / complement inhibition (complement system): anticomplementary effect

COC(=O)c1cc(NS(=O)(=O)c2cc(S(=O)(=O)Nc3ccc(O)c(C(=O)OC)c3)cc(S(=O)(=O)Nc3ccc(O)c(C(=O)OC)c3)c2)ccc1O [5,5',5"-[s-Phenenyltris(sulfonylimino)]trisalicyclic acid trimethyl ester]
AC Wells (citrated sheep plasma): ≤ +1 Wells

COCCOC(=O)c1cc(NS(=O)(=O)c2cc(S(=O)(=O)Nc3cc(C(=O)OCCOC)cc(C(=O)OCCOC)c3)cc(S(=O)(=O)Nc3cc(C(=O)OCCOC)cc(C(=O)OCCOC)c3)c2)cc(C(=O)OCCOC)c1 [5,5',5"-[s-Phenenyltris(sulfonylimino)]tri-isophthalic acid hexakis(2-methoxyethyl)ester]
AC Wells (citrated sheep plasma): < 0 Wells

O=C(O)c1cc(NS(=O)(=O)c2cc(S(=O)(=O)Nc3cc(C(=O)O)cc(C(=O)O)c3)cc(S(=O)(=O)Nc3cc(C(=O)O)cc(C(=O)O)c3)c2)cc(C(=O)O)c1 [5,5',5"-[s-Phenenyltris(sulfonylimino)]tri-isophthalic acid ] [5,5',5"-[s-Phenenyltris(sulfonylimino)]tri-isophthalic acid hexasodium salt, trisodium derivative compound with ethyl alcohol (2:5)]
Intrinsic Therapeutic Index [2]: 64 | Logarithmic Difference Expressed As Wells [2]: +6 Wells | C1 026 Wells (activated human C1): +5 Wells | Complement Inhibiting Activity (Wells) Code 026 (activated human C1): +5 Wells | AC Wells (citrated sheep plasma): -1 Wells | Anti-coagulant Activity (Wells) AC (citrated sheep plasma): -1 Wells | % Inhibition, Intraperitoneal, 30 min (whole complement; 30 mins.): -62% | % Inhibition, Intraperitoneal, 60 min (whole complement): -53% | % Inhibition, Intraperitoneal, 120 min (whole complement; 120 mins.): -49%

NC[C@H]1CC[C@H](C(=O)O)CC1 [tranexamic acid]
success in treatment of hereditary angioneurotic edema [1]: used with success
